Results on 23 sequences are retold here after the supplement of paper PMC11208160.

Data set [1] can be described thus: recombinant barcode read abundance after kanamycin selection (control-corrected) (log10(CPM+1)); higher = more efficient recombination; sequences stand for … in AGTGCAGAGAAAATCGGCCAGTTTTCTCTGCCTGCAGTCCGCATGCCGT…ATTTATGCAGCGGACTGCCTTTCTCCCAAAGTGATAAACCGGACAGTATCATGGACCGGTTTTCCCGGTAATCCGTATTTGCAAGGTTGGTTTCACT; site = the 11-nt target. Here is the method:
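Same pooled E. coli target screen (IS621 bridge recombinase, kanamycin selection, control-corrected CPM, mean of 2 biological replicates). Here the two core-binding nucleotides of the LTG and RTG of the bridge RNA target-binding loop are mutated. Target and donor CT cores are held constant, and the other 9 guide positions match the target. The target is read from the library oligo sequence. Molecule = full bridge RNA written as DNA: nt 1-80 from the library oligo, rest WT scaffold.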

A short description of data set [2]: recombinant barcode read abundance after kanamycin selection (control-corrected) (log10(CPM+1)); higher = more efficient recombination; sequences stand for … in AGTGCAGAGAAAATCGGCCAGTTTTCTCTGCCTGCAGTCCGCATGCCGT…AGATTTATGCAGCGGACTGCCTTTCTCCCAAAGTGATAAACCGGACAGTATCATGGACCGGTTTTCCCGGTAATCCGTATTTGCAAGGTTGGTTTCACT; site = the 11-nt target. The gist of the method: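 The screen was pooled in E. coli and paired targets with IS621 bridge RNA target-binding loops. Recombination efficiency is taken from barcode counts per million at recombinant junctions, averaged and adjusted against the control. Values, in the form log10(CPM+1), come from duplicate plating on chloramphenicol/ampicillin LB agar or on chloramphenicol/ampicillin/kanamycin with 0.1 mM IPTG.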

Turning to “AAACACAAATGGGTTCTAACCTGTTGCCTTT [AAACACACTAG_LTGcore_AA_RTGcore_AA] (site AAACACACTAG) (LTG core: AA, RTG core: AA)”, the “recombinant barcode read abundance (log10)” value in data set [1] is 0.0994. Same read-out and setting: the value for “AAACACAAGTGGGTTCTAACCTGTTGCCTAG [AAACACACTAG_LTGcore_AG_RTGcore_CT] (site AAACACACTAG) (LTG core: AG, RTG core: CT)” was 0.0385; that for “AAACACACCTGGGTTCTAACCTGTTGCCTGG [AAACACACTAG_LTGcore_CC_RTGcore_CC] (site AAACACACTAG) (LTG core: CC, RTG core: CC)” was 1.46. For “AAACACACGTGGGTTCTAACCTGTTGCCTAG [AAACACACTAG_LTGcore_CG_RTGcore_CT] (site AAACACACTAG) (LTG core: CG, RTG core: CT)”, the “recombinant barcode read abundance (log10)” value in data set [1] came to 0.622. Still for that read-out and setting: the value for “AAACACACTTGGGTTCTAACCTGTTGCCTGG [AAACACACTAG_LTGcore_CT_RTGcore_CC] (site AAACACACTAG) (LTG core: CT, RTG core: CC)” was 0.927. Same read-out and setting: the value for “AAACACACTTGGGTTCTAACCTGTTGCCTGT [AAACACACTAG_LTGcore_CT_RTGcore_AC] (site AAACACACTAG) (LTG core: CT, RTG core: AC)” was 0.639.

In the case of “AAACACACTTGGGTTCTAACCTGTTGCCTTT [AAACACACTAG_LTGcore_CT_RTGcore_AA] (site AAACACACTAG) (LTG core: CT, RTG core: AA)”, the “recombinant barcode read abundance (log10)” value in data set [1] is 0.938. Same read-out and setting: the value for “AAACACAGATGGGTTCTAACCTGTTGCCTAG [AAACACACTAG_LTGcore_GA_RTGcore_CT] (site AAACACACTAG) (LTG core: GA, RTG core: CT)” was 0.0116. Still for that read-out and setting: the value for “AAACACATGTGGGTTCTAACCTGTTGCCTCA [AAACACACTAG_LTGcore_TG_RTGcore_TG] (site AAACACACTAG) (LTG core: TG, RTG core: TG)” was 0.0962. As for “AAACACATTTGGGTTCTAACCTGTTGCCTAG [AAACACACTAG_LTGcore_TT_RTGcore_CT] (site AAACACACTAG) (LTG core: TT, RTG core: CT)”, in data set [1], the “recombinant barcode read abundance (log10)” value turned out to be 0.0289. Same read-out and setting: the value for “AAACAGTAGTGGGTTCTAACCTGTTGCCTCT [AAACAGTCTAG_LTGcore_AG_RTGcore_AG] (site AAACAGTCTAG) (LTG core: AG, RTG core: AG)” was 0.13. On the same count and under the same terms, the value for “AAACAGTATTGGGTTCTAACCTGTTGCCTAT [AAACAGTCTAG_LTGcore_AT_RTGcore_AT] (site AAACAGTCTAG) (LTG core: AT, RTG core: AT)” was 0.204. Consider “TTGTACACTTGGGTTCTAACCTGTTGCTC (site TTGTACACTGA)”, for which the “recombinant barcode read abundance (log10)” value in data set [2] is 1.06. Same read-out and setting: the value for “TTGTACTCTTGGGTTCTAACCTGTTGCTT (site TTGTACTCTAA)” was 0.453; that for “TTGTACTCTTGGGTTCTAACCTGTTGCTT (site TTGTGTTCTAA)” was 0.0725; that for “TTGTATTCTTGGGTTCTAACCTGTTGCCT (site TTGAATTCTAA)” was 0.0409. Consider “TTGTATTCTTGGGTTCTAACCTGTTGCCT (site TTGTATTCTAG)”, for which the “recombinant barcode read abundance (log10)” value in data set [2] stood at 0.679. Still for that read-out and setting: the value for “TTGTCGACTTGGGTTCTAACCTGTTGCCA (site TTGACGACTTG)” was 0.105; that for “TTGTCGACTTGGGTTCTAACCTGTTGCCA (site TTGCCGACTTG)” was 0.0807. The same measure, in the same setting: the value for “TTGTCGACTTGGGTTCTAACCTGTTGCCA (site TTGGCGACTTG)” was 0.00572; that for “TTGTCGACTTGGGTTCTAACCTGTTGCCA (site TTGTCGACTTG)” was 0.087; that for “TTGTGAGCTTGGGTTCTAACCTGTTGCCA (site ACAGTTACTAT)” was 0.0715. On the same count and under the same terms, the value for “TTGTGAGCTTGGGTTCTAACCTGTTGCCA (site TTGTGAGCTTG)” was 1.1.
